Laboratory results from patent US8476298B2 (Exelixis, Inc., priority 2003, dated 2013).
Where two headings read alike, the source gives them in different places.

Experiments:
[1] = target: T1, Flt-4 (baculovirus expressed human Flt-4 kinase domain D725-R1298) (Homo sapiens, UniProt P35916); assay: flt-4 Alphascreen Tyrosine Kinase assay; assay type: biochemical;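 also: AlphaScreen chemiluminescence read-out of biotinylated poly(Glu,Tyr) 4:1 phosphorylation via streptavidin donor and PY100 anti-phosphotyrosine acceptor beads, ATP near KM, 1 hr kinase reaction, 10-point dose-response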
T1 construct: human Flt-4 kinase domain D725-R1298; host or cells: baculovirus expression

[2] = target: T2, KDR (baculovirus expressed human KDR kinase domain D807-V1356) (Homo sapiens, UniProt P35968); assay: biochemical;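 also: Luciferase-coupled chemiluminescent kinase assay, activity read as percent ATP left after 4 h reaction at ambient temperature, ATP near KM, 10-point dose-response in 384-well plates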
T2 construct: human KDR kinase domain D807-V1356; host or cells: baculovirus expression

c-Kit kinase = c-Kit kinase (Homo sapiens, UniProt P10721); assay: c-Kit AlphaScreen kinase assay; assay type: biochemical;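 also: c-Kit kinase phosphorylating biotinylated poly(Glu,Tyr), ATP near its KM, 1 h reaction at ambient temperature, AlphaScreen chemiluminescence with streptavidin donor and anti-phosphotyrosine acceptor beads, 10-point inhibitor titration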
[3] = target: T3, c-Met (baculovirus expressed human c-Met kinase domain P948-S1343) (Homo sapiens, UniProt P08581); assay: c-Met Luciferase-Coupled Chemiluminescent Kinase assay (LCCA); assay type: biochemical;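 also: kinase activity read as percent ATP left after reaction, by luciferase-luciferin chemiluminescence, with 1 µM ATP and 1 µM poly-EY substrate, 2 h at ambient temperature, 10-point dose-response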
T3 construct: human c-Met kinase domain P948-S1343; host or cells: baculovirus expression

[4] = target: T4, Flt-3 (baculovirus expressed human Flt-3 kinase domain R571-S993) (Homo sapiens, UniProt P36888); assay: biochemical; settings: read-out: flt3 IC50;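 also: Luciferase-coupled chemiluminescent kinase assay, activity read as percent ATP left after a 3 h reaction at room temperature, ATP near KM, 10-point dose-response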
T4 construct: human Flt-3 kinase domain R571-S993; host or cells: baculovirus expression
T4 sequence (P36888 571-993): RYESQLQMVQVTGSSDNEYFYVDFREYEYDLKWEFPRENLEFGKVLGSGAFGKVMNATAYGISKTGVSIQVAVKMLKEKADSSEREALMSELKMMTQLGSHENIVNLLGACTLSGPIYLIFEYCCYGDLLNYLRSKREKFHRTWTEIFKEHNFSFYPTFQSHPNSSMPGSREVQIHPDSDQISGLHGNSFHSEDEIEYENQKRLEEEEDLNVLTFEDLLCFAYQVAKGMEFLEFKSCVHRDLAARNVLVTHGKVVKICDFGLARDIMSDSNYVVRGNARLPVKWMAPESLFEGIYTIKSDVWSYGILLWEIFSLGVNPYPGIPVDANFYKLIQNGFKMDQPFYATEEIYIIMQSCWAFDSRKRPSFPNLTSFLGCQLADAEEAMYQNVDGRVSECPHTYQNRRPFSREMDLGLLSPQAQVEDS

[5] = Table 4, inhibition as IC50 class

T2 sequence (P35968 807-1356): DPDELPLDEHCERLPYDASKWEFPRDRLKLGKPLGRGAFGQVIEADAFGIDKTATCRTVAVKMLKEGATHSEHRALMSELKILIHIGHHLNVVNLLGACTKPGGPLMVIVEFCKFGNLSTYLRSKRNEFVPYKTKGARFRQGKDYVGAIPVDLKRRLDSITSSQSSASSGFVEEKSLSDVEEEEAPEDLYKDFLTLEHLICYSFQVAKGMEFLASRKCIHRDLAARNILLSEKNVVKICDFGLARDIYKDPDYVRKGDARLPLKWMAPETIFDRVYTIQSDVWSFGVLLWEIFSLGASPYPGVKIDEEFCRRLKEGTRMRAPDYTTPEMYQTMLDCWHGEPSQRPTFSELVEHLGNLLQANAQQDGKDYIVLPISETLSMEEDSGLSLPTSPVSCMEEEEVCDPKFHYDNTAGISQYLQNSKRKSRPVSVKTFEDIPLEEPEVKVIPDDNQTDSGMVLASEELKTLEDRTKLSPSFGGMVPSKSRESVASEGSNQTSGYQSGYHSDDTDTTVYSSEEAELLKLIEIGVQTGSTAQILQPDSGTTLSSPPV
T3 sequence (P08581 1011-1343 limits assumed): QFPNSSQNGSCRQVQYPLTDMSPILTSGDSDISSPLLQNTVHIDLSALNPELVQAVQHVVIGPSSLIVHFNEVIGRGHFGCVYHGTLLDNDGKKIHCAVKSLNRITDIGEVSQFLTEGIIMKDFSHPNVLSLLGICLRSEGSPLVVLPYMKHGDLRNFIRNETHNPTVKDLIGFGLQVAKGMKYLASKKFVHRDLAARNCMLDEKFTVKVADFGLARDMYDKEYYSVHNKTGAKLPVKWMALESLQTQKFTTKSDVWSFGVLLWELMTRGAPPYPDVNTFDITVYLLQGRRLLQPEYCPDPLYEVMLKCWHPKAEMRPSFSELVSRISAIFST
T1 sequence (P35916 725-1298 isoform P35916-1): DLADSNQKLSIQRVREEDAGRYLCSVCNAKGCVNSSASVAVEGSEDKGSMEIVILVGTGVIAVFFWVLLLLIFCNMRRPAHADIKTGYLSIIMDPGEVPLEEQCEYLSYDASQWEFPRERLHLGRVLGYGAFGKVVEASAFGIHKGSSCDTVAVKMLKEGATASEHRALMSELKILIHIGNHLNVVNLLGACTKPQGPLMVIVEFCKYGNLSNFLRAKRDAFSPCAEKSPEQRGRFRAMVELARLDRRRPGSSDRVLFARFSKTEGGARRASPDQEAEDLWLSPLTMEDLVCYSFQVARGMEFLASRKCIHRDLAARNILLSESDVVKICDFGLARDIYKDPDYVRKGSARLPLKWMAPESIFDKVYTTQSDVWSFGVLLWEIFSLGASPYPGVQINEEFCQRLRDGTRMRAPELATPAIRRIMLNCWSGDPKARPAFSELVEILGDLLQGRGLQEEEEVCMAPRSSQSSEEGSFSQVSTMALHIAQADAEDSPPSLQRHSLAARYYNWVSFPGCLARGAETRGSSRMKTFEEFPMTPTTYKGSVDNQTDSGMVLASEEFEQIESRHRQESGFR
Sequence of c-Kit kinase (P10721 26-976): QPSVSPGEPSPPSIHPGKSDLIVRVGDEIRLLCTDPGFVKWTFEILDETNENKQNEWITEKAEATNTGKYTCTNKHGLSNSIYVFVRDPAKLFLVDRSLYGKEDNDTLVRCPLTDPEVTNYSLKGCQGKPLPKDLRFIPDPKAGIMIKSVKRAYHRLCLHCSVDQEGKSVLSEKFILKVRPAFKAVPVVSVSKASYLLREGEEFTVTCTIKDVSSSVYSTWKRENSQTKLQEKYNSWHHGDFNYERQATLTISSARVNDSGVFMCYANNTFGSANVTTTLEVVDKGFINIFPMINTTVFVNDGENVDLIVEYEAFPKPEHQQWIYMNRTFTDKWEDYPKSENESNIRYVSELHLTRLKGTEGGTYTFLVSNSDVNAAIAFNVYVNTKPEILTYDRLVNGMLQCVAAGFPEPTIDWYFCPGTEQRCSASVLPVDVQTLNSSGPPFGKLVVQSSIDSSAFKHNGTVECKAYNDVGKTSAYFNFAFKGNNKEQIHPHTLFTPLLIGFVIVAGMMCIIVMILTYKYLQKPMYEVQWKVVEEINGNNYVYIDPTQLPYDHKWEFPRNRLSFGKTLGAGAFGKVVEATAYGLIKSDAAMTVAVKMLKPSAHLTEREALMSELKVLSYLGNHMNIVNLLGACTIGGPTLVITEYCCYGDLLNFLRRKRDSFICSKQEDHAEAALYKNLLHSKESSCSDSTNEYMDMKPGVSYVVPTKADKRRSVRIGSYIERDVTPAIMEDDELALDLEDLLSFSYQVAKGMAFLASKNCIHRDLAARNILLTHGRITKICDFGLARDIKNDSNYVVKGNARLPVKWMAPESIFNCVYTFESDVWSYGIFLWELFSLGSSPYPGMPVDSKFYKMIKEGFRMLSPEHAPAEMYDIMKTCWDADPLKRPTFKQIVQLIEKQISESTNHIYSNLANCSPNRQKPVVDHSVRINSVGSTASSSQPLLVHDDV

| IC50 [2] | IC50 [3] | IC50 [4] | IC50 (c-Kit kinase; [5]) | Compound | also measured |
| --- | --- | --- | --- | --- | --- |
| < 50 nM | – | – | – | COc1cc2c(Oc3ccc(NC(=S)NC(=O)Cc4ccccc4)cc3F)ncnc2cc1OCC1C[C@H]2CNC[C@H]2C1 (stereo partly shown) [Entry 1] | IC50 ([1]; read-out: flt4 IC50): < 50 nM |
| < 50 nM | < 50 nM | – | – | COc1cc2c(Oc3ccc(NC(=S)NC(=O)Cc4ccccc4)cc3F)ncnc2cc1OCC1C[C@@H]2CN(C)C[C@@H]2C1 (stereo partly shown) [Entry 2] | IC50 (c-Kit kinase): < 50 nM; IC50 ([1]; read-out: flt4 IC50): < 50 nM |
| – | – | – | – | COc1cc2nccc(Oc3ccc(NC(=O)C(=O)NCc4ccccc4)cc3F)c2cc1OC [Entry 12] | IC50 (c-Kit kinase): 50 to 500 nM |
| > 5000 nM | 50 to 500 nM | – | – | COc1cc2nccc(Oc3ccc(NC(=O)C(=O)N[C@@H]4CCc5ccccc5C4)cc3F)c2cc1OC [Entry 71] | IC50 (c-Kit kinase): 50 to 500 nM; IC50 ([1]; read-out: flt4 IC50): 500 to 5000 nM |
| – | 500 to 5000 nM | 500 to 5000 nM | – | COc1cc2nccc(Oc3ccc(NC(=O)C(=O)NCCC4CCCN4C)cc3F)c2cc1OC (stereo not shown) [Entry 72] | IC50 (c-Kit kinase): 500 to 5000 nM |
| 50 to 500 nM | 50 to 500 nM | – | – | COc1cc2nccc(Oc3ccc(NC(=O)C(=O)NCCOc4ccccc4)cc3F)c2cc1OC [Entry 73] | IC50 (c-Kit kinase): 50 to 500 nM; IC50 ([1]; read-out: flt4 IC50): 500 to 5000 nM |
| – | – | – | – | COc1cc2c(Oc3ccc(NC(=O)C(=O)NCCc4cccc(Cl)c4)cc3F)ccnc2cc1OCC1CCNCC1 [Example 149, N-[2-(3-Chloro-phenyl)-ethyl]-N′-{3-fluoro-4-[6-methoxy-7-{piperidin-4-ylmethoxy)-quinolin-4-yloxy]-phenyl}-oxalamide] | IC50 (c-Kit kinase): < 50 nM |
| – | – | – | 50 to 500 nM | CCOc1ccc(CCNC(=O)C(=O)Nc2ccc(Oc3ccnc4cc(OCC5CCNCC5)c(OC)cc34)c(F)c2)cc1 [Example 167, N-[2-(4-Ethoxy-phenyl)-ethyl]-N′-{3-fluoro-4-[6-methoxy-7-(piperidin-4-ylmethoxy)-quinolin-4-yloxy]-phenyl}-oxalamide] | – |
| – | – | – | < 50 nM | COc1cc2c(Oc3ccc(NC(=O)C(=O)NCCc4ccc(Cl)c(Cl)c4)cc3F)ccnc2cc1OCC1CCNCC1 [Example 223, N-[2-(3,4-dichlorophenyl)ethyl]-N′-[3-fluoro-4-({6-(methyloxy)-7-[(piperidin-4-ylmethyl)oxy]quinolin-4-yl}oxy)phenyl]ethanediamide] | IC50 [4, 5]: < 50 nM; IC50 [3, 5]: < 50 nM; IC50 [2, 5]: < 50 nM |
| – | – | – | 50 to 500 nM | COc1cc2nccc(Oc3ccc(NC(=O)C(=O)NCC(c4ccccc4)N(C)C)cc3F)c2cc1OC (stereo not shown) [Example 235, N-(4-{[6,7-bis(methyloxy)quinolin-4-yl]oxy}-3-fluorophenyl)-N′-[2-(dimethylamino)-2-phenylethyl]ethanediamide] | IC50 [4, 5]: < 50 nM; IC50 [3, 5]: 50 to 500 nM; IC50 [2, 5]: 50 to 500 nM |
| – | – | – | < 50 nM | COc1ccc(CNC(=O)C(=O)Nc2ccc(Oc3ccnc4cc(OCC5CCN(C)CC5)c(OC)cc34)c(F)c2)cc1 [Example 247, N-{3-fluoro-4-[(6-(methyloxy)-7-{[(1-methylpiperidin-4-yl)methyl]oxy}quinolin-4-yl)oxy]phenyl}-N′-{[4-(methyloxy)phenyl]methyl}ethanediamide] | IC50 [4, 5]: 50 to 500 nM; IC50 [3, 5]: < 50 nM; IC50 [2, 5]: 50 to 500 nM |
| – | – | – | 50 to 500 nM | COc1cc2c(Oc3ccc(NC(=O)C(=O)NCC(O)c4ccccc4)cc3F)ccnc2cc1OCC1CCNCC1 (stereo not shown) [Example 251, N-[3-fluoro-4-({6-(methyloxy)-7-[(piperidin-4-ylmethyl)oxy]quinolin-4-yl}oxy)phenyl]-N′-(2-hydroxy-2-phenylethyl)ethanediamide] | IC50 [4, 5]: 50 to 500 nM; IC50 [3, 5]: 50 to 500 nM; IC50 [2, 5]: 50 to 500 nM |
| – | – | – | 500 to 5000 nM | CC[C@H](NC(=O)C(=O)Nc1ccc(Oc2ccnc3cc(OCC4CCNCC4)c(OC)cc23)c(F)c1)c1ccccc1 [Example 255, N-[3-fluoro-4-({6-(methyloxy)-7-[(piperidin-4-ylmethyl)oxy]quinolin-4-yl}oxy)phenyl]-N′-[(1S)-1-phenylpropyl]ethanediamide] | IC50 [4, 5]: 50 to 500 nM; IC50 [3, 5]: < 50 nM; IC50 [2, 5]: 50 to 500 nM |
| – | – | – | 500 to 5000 nM | COc1cc2c(Oc3ccc(NC(=O)C(=O)NCc4cc(C(F)(F)F)cc(C(F)(F)F)c4)cc3F)ccnc2cc1OCC1CCNCC1 [Example 272, N-{[3,5-bis(trifluoromethyl)phenyl]methyl}-N′-[3-fluoro-4-({6-(methyloxy)-7-[(piperidin-4-ylmethyl)oxy]quinolin-4-yl}oxy)phenyl]ethanediamide] | IC50 [4, 5]: 50 to 500 nM; IC50 [3, 5]: < 50 nM; IC50 [2, 5]: < 50 nM |
| – | – | – | 500 to 5000 nM | COc1cc2c(Oc3ccc(NC(=O)C(=O)NCc4cnccn4)cc3F)ccnc2cc1OCC1CCNCC1 [Example 273, N-[3-fluoro-4-({6-(methyloxy)-7-[(piperidin-4-ylmethyl)oxy]quinolin-4-yl}oxy)phenyl]-N′-(pyrazin-2-ylmethyl)ethanediamide] | IC50 [4, 5]: 50 to 500 nM; IC50 [3, 5]: 50 to 500 nM; IC50 [2, 5]: 500 to 5000 nM |
| – | – | – | – | COc1cc2nccc(Oc3ccc(NC(=O)C4(C(=O)Nc5ccc(F)cc5)CC4)cc3)c2cc1OC [Example 289, N-(4-{[6,7-bis(methyloxy)quinolin-4-yl]oxy}phenyl)-N′-(4-fluorophenyl)cyclopropane-1,1-dicarboxamide] | IC50 [1]: 5.58 nM |
| 50 to 500 nM | < 50 nM | < 50 nM | – | COc1cc2nccc(Oc3ncc(NC(=O)C4(C(=O)Nc5ccccc5)CC4)cc3Cl)c2cc1OC [Example 305, N-(6-{[6,7-bis(methyloxy)quinolin-4-yl]oxy}-5-chloropyridin-3-yl)-N′-phenylcyclopropane-1,1-dicarboxamide] | IC50 (c-Kit kinase): 50 to 500 nM |
| – | – | < 50 nM | – | COc1cc2nccc(Oc3ccc(NC(=O)C4(C(=O)Nc5ccc(F)cc5)CC4)cc3F)c2cc1OC [Example 319, N-(4-{[6,7-bis(methyloxy)quinolin-4-yl]oxy}-3-fluorophenyl)-N′-(4-fluorophenyl)cyclopropane-1,1-dicarboxamide] | IC50 (c-Kit kinase): < 50 nM; IC50 ([1]; read-out: flt4 IC50): < 50 nM |
| > 5000 nM | 500 to 5000 nM | 50 to 500 nM | – | COc1cc2nccc(Oc3ccc(NC(=O)C4(C(=O)NCCN5CCOCC5)CC4)cc3)c2cc1OC [Example 393, N-(4-{[6,7-bis(methyloxy)quinolin-4-yl]oxy}phenyl)-N′-(2-morpholin-4-ylethyl)cyclopropane-1,1-dicarboxamide] | – |
| > 5000 nM | 50 to 500 nM | 50 to 500 nM | – | COc1cc2nccc(Oc3ccc(NC(=O)C4(C(=O)Nc5ccccc5CN5CCCCC5)CC4)cc3)c2cc1OC [Example 394, N-(4-{[6,7-bis(methyloxy)quinolin-4-yl]oxy}phenyl)-N′-[2-(piperidin-1-ylmethyl)phenyl]cyclopropane-1,1-dicarboxamide] | – |
| 500 to 5000 nM | 50 to 500 nM | 50 to 500 nM | – | COc1cc2nccc(Oc3ccc(NC(=O)C4(C(=O)Nc5ccccc5CN5CCCC5)CC4)cc3)c2cc1OC [Example 395, N-(4-{[6,7-bis(methyloxy)quinolin-4-yl]oxy}phenyl)-N′-[2-(pyrrolidin-1-ylmethyl)phenyl]cyclopropane-1,1-dicarboxamide] | – |
| < 50 nM | 50 to 500 nM | < 50 nM | – | COc1cc2nccc(Oc3ccc(NC(=O)C4(C(=O)Nc5cccc(CN6CCOCC6)c5)CC4)cc3)c2cc1OC [Example 396, N-(4-{[6,7-bis(methyloxy)quinolin-4-yl]oxy}phenyl)-N′-[3-(morpholin-4-ylmethyl)phenyl]cyclopropane-1,1-dicarboxamide] | – |
| 500 to 5000 nM | 50 to 500 nM | 50 to 500 nM | – | COc1cc2nccc(Oc3ccc(NC(=O)C4(C(=O)Nc5ccccc5CN5CCOCC5)CC4)cc3)c2cc1OC [Example 397, N-(4-{[6,7-bis(methyloxy)quinolin-4-yl]oxy}phenyl)-N′-[2-(morpholin-4-ylmethyl)phenyl]cyclopropane-1,1-dicarboxamide] | – |
| < 50 nM | < 50 nM | < 50 nM | – | COc1cc2nccc(Oc3ccc(NC(=O)C4(C(=O)Nc5ccccc5)CC4)cc3)c2cc1OC [Example 398, N-(4-{[6,7-bis(methyloxy)quinolin-4-yl]oxy}phenyl)-N′-phenylcyclopropane-1,1-dicarboxamide] | – |
| < 50 nM | 50 to 500 nM | 50 to 500 nM | – | COc1cc2nccc(Oc3ccc(NC(=O)C4(C(=O)Nc5cccc(CN)c5)CC4)cc3)c2cc1OC [Example 399, N-[3-(aminomethyl)phenyl]-N′-(4-{[6,7-bis(methyloxy)quinolin-4-yl]oxy}phenyl)cyclopropane-1,1-dicarboxamide] | – |

| Compound | IC50 [2] | IC50 [3] | IC50 [4] | IC50 (c-Kit kinase; [5]) | also measured |
| --- | --- | --- | --- | --- | --- |
| COc1cc2c(Oc3ccc(NC(=O)C(=O)NC4CCc5ccccc54)cc3F)ccnc2cc1OCC1CCNCC1 (stereo not shown) [Example 177, N-{3-Fluoro-4-[6-methoxy-7-(piperidin-4-ylmethoxy)-quinolin-4-yloxy]-phenyl}-N′-indan-1-yl-oxalamide] | – | – | – | < 50 nM | – |
| COc1cc2c(Oc3ccc(NC(=O)C(=O)N[C@@H](C)c4ccccc4)cc3F)ccnc2cc1OCC1CCNCC1 [Example 184, N-{3-Fluoro-4-[6-methoxy-7-(piperidin-4-ylmethoxy)-quinolin-4-yloxy]-phenyl}-N′-(1S-phenyl-ethyl)-oxalamide] | – | – | – | < 50 nM | – |
